Consider one compound from patent US8623924B2, “Compositions and methods for modulating metabolic pathways” (Nusirt Sciences, Inc., priority 2011, dated 2014).

Marks after values point to notes of the source that are not given here.

What all share (assay type): in vivo
Test [1] can be described thus: Body weight, weight gain and visceral adiposity in diet-induced obese mice. Particulars: 6 weeks on diet, low resveratrol 12.5 mg/kg diet, low HMB 2 g CaHMB/kg diet, high HMB 10 g CaHMB/kg diet, leucine 2.42% of diet. The source says:
(§1) Six week old male c57/BL6 mice were fed a high-fat diet with fat increased to 45% of energy (Research Diets D12451) for 6 weeks to induce obesity.
(§2) At the of the treatment period (6 weeks) all animals were humanely euthanized, and blood and tissues collected for further experiments.

The nature of test [2]: MicroPET/CT glucose and palmitate uptake in diet-induced obese mice. Particulars: 6 weeks on diet, low resveratrol 12.5 mg/kg diet, low HMB 2 g CaHMB/kg diet, high HMB 10 g CaHMB/kg diet, leucine 2.42% of diet.
Text: as §1
MicroPET/CT (Glucose and Palmitate Uptake): At the end of the treatment period (6 weeks of treatment) subgroups of each treatment diet group (5 animals/group, 35 animals total) were used to measure whole body glucose and palmitate uptake via PET/CT Imaging. To visualize these compounds using microPET imaging, the glucose or palmitate was labeled with fluorine-18 (108 mins half life) or carbon-11 (20 mins half life), respectively. Each mouse was fasted for 4 hours, then anesthetized using 1-3% isoflurane delivered by nose cone or in a mouse-sized induction chamber purpose-built for small animal imaging protocols. While under anesthesia the mice were injected iv with <2 mCi of each tracer, then be left for a period of time (minutes to up ˜1 hour) to allow the uptake of the tracer. During the scan, mice were kept warm using a thermostatically controlled heated bed and were treated with ophthalmic ointment prior to scanning. Following the live scan the mice were returned to their cage and revived. Mice were monitored constantly during this time. Following live data acquisition the mice were sacrificed by isoflurane overdose and organs harvested for further experiments.

The nature of test [3]: Oxygen consumption/substrate utilization (metabolic chambers) in diet-induced obese mice. Particulars: low resveratrol 12.5 mg/kg diet, low HMB 2 g CaHMB/kg diet, high HMB 10 g CaHMB/kg diet, leucine 2.42% of diet. As for the experimental part: as §1
Oxygen Consumption/Substrate Utilization: at the end of the obesity induction period (day 0 of treatment group) and at 2 weeks and 6 weeks of treatment, oxygen consumption and substrate utilization was measured via metabolic chambers using the Comprehensive Lab Animal Monitoring Systems (CLAMS, Columbus Instruments, Columbus, Ohio) in subgroups of each treatment group. Each animal was placed in individual cages without bedding that allow automated, non-invasive data collection. Each cage is an indirect open circuit calorimeter that provides measurement of oxygen consumption, carbon dioxide production, and concurrent measurement of food intake. All mice were acclimatized to the chambers for 24 hours prior to the experiment and maintained under the regular 12:12 light:dark cycle with free access to water and food. All experiments were started in the morning and data were collected for 24 hours. Each chamber was passed with 0.6 l of air/min and was sampled for 2 min at 32-minute intervals. Exhaust O2 and CO2 content from each chamber was compared with ambient O2 and CO2 content. Food consumption was measured by electronic scales.

A short description of test [4]: Indices of insulin sensitivity (plasma glucose, insulin, HOMAIR) in diet-induced obese mice. Particulars: 6 weeks on diet, low resveratrol 12.5 mg/kg diet, low HMB 2 g CaHMB/kg diet, high HMB 10 g CaHMB/kg diet, leucine 2.42% of diet.
Text: Insulin sensitivity can be measured using a variety of techniques, including HOMAIR. HOMAIR, which is the homeostasis model assessment of insulin resistance can be used as a screening index of changes in insulin sensitivity. HOMAIR can be calculated via standard formula from fasting plasma insulin and glucose as follows: HOMAIR=[Insulin (uU/mL)×glucose (mM)]/22.5.
as §1, §2

In another test the test system is IL-6. Kind of test: Inflammatory biomarker IL-6 in diet-induced obese mice. Particulars: 6 weeks on diet, low resveratrol 12.5 mg/kg diet, low HMB 2 g CaHMB/kg diet, high HMB 10 g CaHMB/kg diet, leucine 2.42% of diet.
A further test deals with MCP-1. In words: Inflammatory biomarker MCP-1 in diet-induced obese mice. Particulars: 6 weeks on diet, low resveratrol 12.5 mg/kg diet, low HMB 2 g CaHMB/kg diet, high HMB 10 g CaHMB/kg diet, leucine 2.42% of diet.
In a further test the test system is Adiponectin. Kind of test: Adiponectin in diet-induced obese mice. Particulars: 6 weeks on diet, low resveratrol 12.5 mg/kg diet, low HMB 2 g CaHMB/kg diet, high HMB 10 g CaHMB/kg diet, leucine 2.42% of diet.

Consider `CC(C)(O)CC(=O)O` [HMB], for which, in test [1], the “Visceral Adipose Volume (mm^3)” value is given as 6184 ± 460^a mm^3, the “Weight (g)” value is 40.3 ± 2.1^a g and the “Weight gain” value was found to be 22.5 ± 1.2 g. Also, in test [2], the “Fat oxidation (PET palmitate uptake; Muscle SUV)” value is on record as 1.90 ± 0.29^a SUV and the “Muscle Glucose Uptake (18F-deoxyglucose SUV)” value is reported as 2.99 ± 0.42^a SUV. For the same compound, in test [3], the “Heat Production” value was 0.526 ± 0.011^a and the “Respiratory Exchange Ratio (24 hr RER)” value is recorded as 0.844 ± 0.012^a. In test [4], the HOMAIR was 1.93 ± 0.32^a. Also, in test [4] (plasma), the “Glucose (mM)” value is 4.28 ± 0.49^a mM and the “Insulin (μU/mL)” value is 8.3 ± 1.1^a μU/mL. For the same compound, the “IL-6 (pg/mL)” value with IL-6 is 19.9 ± 3.1^a pg/mL. Also, in the test on MCP-1, the “MCP-1 (pg/mL)” value is given as 116.8 ± 9.3^a pg/mL. Besides, in the test on Adiponectin, the “Adiponectin (ng/mL)” value is recorded as 11.1 ± 1.6^a ng/mL.
